Where “and” joins values, the source holds several entries; their conditions need not be identical. Equal values may be shown once. Calls of active or inactive are those of the source. The rule behind the calls is not given here.
Tested on: rodent lifetime carcinogenesis bioassay, tumor incidence TD50
Assay: chronic cancer bioassays in animals – CPDB, compiled studies (AID 1745844)

Compound: COc1ccc(OC)c(/C=C/c2ccc(N)cc2)c1
- TD50 (mouse, strain CD-1 HaM/ICR, females, in feed, site: any site (literature study), lesion: several types, types named in the paper, dosed 77 weeks, study length 90 weeks): 118 mg/kg/day (inactive)
- carcinogen call (mouse, strain CD-1 HaM/ICR, females, in feed, site: liver, lesion: several types, types named in the paper, dosed 77 weeks, study length 90 weeks): negative (inactive)
- TD50 (mouse, strain CD-1 HaM/ICR, females, in feed, site: lung, lesion: several types, types named in the paper, dosed 77 weeks, study length 90 weeks): 152 mg/kg/day (inactive)
- TD50 (mouse, strain CD-1 HaM/ICR, males, in feed, site: any site (literature study), lesion: several types, types named in the paper, dosed 77 weeks, study length 90 weeks): 126 mg/kg/day
- TD50 (mouse, strain CD-1 HaM/ICR, males, in feed, site: liver, lesion: hepatoma, dosed 77 weeks, study length 90 weeks): 376 mg/kg/day
- TD50 (mouse, strain CD-1 HaM/ICR, males, in feed, site: liver, lesion: several types, types named in the paper, dosed 77 weeks, study length 90 weeks): 329 mg/kg/day
- TD50 (mouse, strain CD-1 HaM/ICR, males, in feed, site: lung, lesion: several types, types named in the paper, dosed 77 weeks, study length 90 weeks): 95.9 mg/kg/day and 115 mg/kg/day
- TD50 (rat, strain Charles River CD (Sprague-Dawley), males, in feed, site: any site (literature study), lesion: several types, types named in the paper, dosed 47 weeks, study length 51 weeks): 0.269 mg/kg/day
- TD50 (rat, strain Charles River CD (Sprague-Dawley), males, in feed, site: ear, lesion: several types, types named in the paper, dosed 47 weeks, study length 51 weeks): 1.45 mg/kg/day and 1.54 mg/kg/day
- TD50 (rat, strain Charles River CD (Sprague-Dawley), males, in feed, site: liver, lesion: several types, types named in the paper, dosed 47 weeks, study length 51 weeks): 2.61 mg/kg/day
- TD50 (rat, strain Charles River CD (Sprague-Dawley), males, in feed, site: skin, lesion: several types, types named in the paper, dosed 47 weeks, study length 51 weeks): 1.48 mg/kg/day
- TD50 (rat, strain Charles River CD (Sprague-Dawley), males, in feed, site: small intestine, lesion: several types, types named in the paper, dosed 47 weeks, study length 51 weeks): 0.866 mg/kg/day
- TD50 (rat, strain Charles River CD (Sprague-Dawley), males, in feed, site: stomach, lesion: several types, types named in the paper, dosed 47 weeks, study length 51 weeks): 0.721 mg/kg/day

Compound: COc1cc(OC)c2c3c(c(=O)oc2c1)C(=O)CC3
- carcinogen call (rat, strain Fischer, males, by gavage, site: liver, lesion: one or several types, types not named, dosed 52 weeks, study length 87 weeks): negative (inactive)

Compound: CCOc1ccc(NC(C)=O)cc1
- TD50 (mouse, strain B6C3F1, females, in feed, site: liver, lesion: hemangioma, dosed 96 weeks, study length 104 weeks): 29200 mg/kg/day (inactive)
- TD50 (mouse, strain B6C3F1, females, in feed, site: liver, lesion: hepatocellular carcinoma, dosed 96 weeks, study length 104 weeks): 47700 mg/kg/day (inactive)
- TD50 (mouse, strain B6C3F1, females, in feed, site: liver, lesion: hyperplastic nodule, dosed 96 weeks, study length 104 weeks): 14000 mg/kg/day (inactive)
- TD50 (mouse, strain B6C3F1, females, in feed, site: lung, lesion: adenocarcinoma, dosed 96 weeks, study length 104 weeks): 8830 mg/kg/day (inactive)
- TD50 (mouse, strain B6C3F1, females, in feed, site: lung, lesion: adenoma, dosed 96 weeks, study length 104 weeks): 6890 mg/kg/day (inactive)
- TD50 (mouse, strain B6C3F1, females, in feed, site: urinary bladder, lesion: papilloma, dosed 96 weeks, study length 104 weeks): 37000 mg/kg/day
- TD50 (mouse, strain B6C3F1, females, in feed, site: urinary bladder, lesion: transitional-cell carcinoma, dosed 96 weeks, study length 104 weeks): 37000 mg/kg/day
- TD50 (mouse, strain B6C3F1, males, in feed, site: kidney, lesion: renal-cell adenoma, dosed 96 weeks, study length 104 weeks): 1100 mg/kg/day
- TD50 (mouse, strain B6C3F1, males, in feed, site: kidney, lesion: renal-cell carcinoma, dosed 96 weeks, study length 104 weeks): 4020 mg/kg/day
- carcinogen call (mouse, strain B6C3F1, males, in feed, site: liver, lesion: hemangioma, dosed 96 weeks, study length 104 weeks): negative (inactive)
- TD50 (mouse, strain B6C3F1, males, in feed, site: liver, lesion: hepatocellular carcinoma, dosed 96 weeks, study length 104 weeks): 17100 mg/kg/day (inactive)
- carcinogen call (mouse, strain B6C3F1, males, in feed, site: liver, lesion: hyperplastic nodule, dosed 96 weeks, study length 104 weeks): negative (inactive)
- TD50 (mouse, strain B6C3F1, males, in feed, site: lung, lesion: adenocarcinoma, dosed 96 weeks, study length 104 weeks): 3800 mg/kg/day (inactive)
- TD50 (mouse, strain B6C3F1, males, in feed, site: lung, lesion: adenoma, dosed 96 weeks, study length 104 weeks): 5280 mg/kg/day (inactive)
- carcinogen call (mouse, strain C57BL/6, females, in feed, site: liver, lesion: one or several types, types not named, dosed 77 weeks, study length 77 weeks): negative (inactive)
- TD50 (mouse, strain C57BL/6, males, in feed, site: liver, lesion: hyperplastic nodule, dosed 77 weeks, study length 77 weeks): 12900 mg/kg/day (inactive)
- TD50 (rat, strain Sprague-Dawley, females, in feed, site: all sites, lesion: myeloid leukemia, dosed 78 weeks, study length 104 weeks): 2560 mg/kg/day (inactive)
- TD50 (rat, strain Sprague-Dawley, females, in feed, site: any site (literature study), lesion: several types, types named in the paper, dosed 78 weeks, study length 104 weeks): 1210 mg/kg/day
- TD50 (rat, strain Sprague-Dawley, females, in feed, site: ear duct, lesion: squamous-cell carcinoma, dosed 110 weeks, study length 110 weeks): 1430 mg/kg/day
- TD50 (rat, strain Sprague-Dawley, females, in feed, site: mammary gland, lesion: adenocarcinoma, dosed 110 weeks, study length 110 weeks): 1380 mg/kg/day
- TD50 (rat, strain Sprague-Dawley, females, in feed, site: nasal cavity, lesion: adenocarcinoma, dosed 78 weeks, study length 104 weeks): 7730 mg/kg/day
- TD50 (rat, strain Sprague-Dawley, females, in feed, site: nasal cavity, lesion: squamous-cell carcinoma, dosed 78 weeks, study length 104 weeks): 48000 mg/kg/day
- TD50 (rat, strain Sprague-Dawley, females, in feed, site: nasal cavity, lesion: transitional-cell carcinoma, dosed 78 weeks, study length 104 weeks): 23800 mg/kg/day
- TD50 (rat, strain Sprague-Dawley, females, in feed, site: several sites, sites named in the paper, lesion: several types, types named in the paper, dosed 78 weeks, study length 104 weeks): 2730 mg/kg/day
- TD50 (rat, strain Sprague-Dawley, females, in feed, site: urinary bladder, lesion: papilloma, dosed 78 weeks, study length 104 weeks): 23800 mg/kg/day
- TD50 (rat, strain Sprague-Dawley, females, in feed, site: urinary bladder, lesion: transitional-cell carcinoma, dosed 78 weeks, study length 104 weeks): 11700 mg/kg/day
- TD50 (rat, strain Sprague-Dawley, males, in feed, site: all sites, lesion: myeloid leukemia, dosed 78 weeks, study length 104 weeks): 2380 mg/kg/day (inactive)
- TD50 (rat, strain Sprague-Dawley, males, in feed, site: any site (literature study), lesion: several types, types named in the paper, dosed 78 weeks, study length 104 weeks): 631 mg/kg/day
- TD50 (rat, strain Sprague-Dawley, males, in feed, site: forestomach, lesion: squamous-cell papilloma, dosed 117 weeks, study length 117 weeks): 2690 mg/kg/day
- TD50 (rat, strain Sprague-Dawley, males, in feed, site: kidney cortex, lesion: renal-cell tumor, dosed 117 weeks, study length 117 weeks): 1300 mg/kg/day
- TD50 (rat, strain Sprague-Dawley, males, in feed, site: kidney/pelvis, lesion: one or several types, types not named, dosed 117 weeks, study length 117 weeks): 5470 mg/kg/day
- TD50 (rat, strain Sprague-Dawley, males, in feed, site: kidney/pelvis, lesion: renal-cell carcinoma, dosed 78 weeks, study length 104 weeks): 38300 mg/kg/day
- TD50 (rat, strain Sprague-Dawley, males, in feed, site: liver, lesion: hemangioma, dosed 117 weeks, study length 117 weeks): 5470 mg/kg/day
- TD50 (rat, strain Sprague-Dawley, males, in feed, site: nasal cavity, lesion: adenocarcinoma, dosed 78 weeks, study length 104 weeks): 2380 mg/kg/day
- TD50 (rat, strain Sprague-Dawley, males, in feed, site: nasal cavity, lesion: squamous-cell carcinoma, dosed 78 weeks, study length 104 weeks): 7530 mg/kg/day
- TD50 (rat, strain Sprague-Dawley, males, in feed, site: nasal cavity, lesion: transitional-cell carcinoma, dosed 78 weeks, study length 104 weeks): 4050 mg/kg/day
- TD50 (rat, strain Sprague-Dawley, males, in feed, site: several sites, sites named in the paper, lesion: several types, types named in the paper, dosed 78 weeks, study length 104 weeks): 741 mg/kg/day
- TD50 (rat, strain Sprague-Dawley, males, in feed, site: urinary bladder, lesion: one or several types, types not named, dosed 117 weeks, study length 117 weeks): 1640 mg/kg/day
- TD50 (rat, strain Sprague-Dawley, males, in feed, site: urinary bladder, lesion: transitional-cell carcinoma, dosed 78 weeks, study length 104 weeks): 2710 mg/kg/day
- carcinogen call (rat, strain Wistar, females, in feed, site: urinary tract, lesion: one or several types, types not named, dosed 69 weeks, study length 69 weeks): negative (inactive)

Compound: O=C(O[C@@H]1Cc2c(O)cc(O)cc2O[C@@H]1c1cc(O)c(O)c(O)c1)c1cc(O)c(O)c(O)c1
- carcinogen call (mouse, strain C3H/HeN, males, in drinking water, site: liver, lesion: several types, types named in the paper, dosed 58 weeks, study length 58 weeks): negative (inactive)
